Measurements published in a melting point compilation (Tetko et al.).

melting point [°C] | Structure (SMILES)
110 | COc1ccc2c(=O)c(C)c(-c3ccccc3)oc2c1CN(C)C
129 to 131 | CC1(C)CC(C(N)=O)C(C)(C)N1 (stereo unspecified)
159 | CC(=O)Oc1ccccc1C(=O)Oc1ccccc1C(=O)O
11 | OCCNc1ccccc1
181 to 183 | CC1Sc2ccc(Cl)cc2-c2nc(N)ncc21 (stereo unspecified)
79 to 80 | O=C(Cl)c1cccnc1Oc1ccc(Cl)cc1
82 to 83 | Cc1ccc2cccc-2cc1
102 | O=S(=O)(Cl)c1cc(S(=O)(=O)c2ccccc2)cs1
53 | CCOC(=O)c1cc(C(C)=O)ccc1OCC
111 to 113 | C=CCn1c(=O)oc(=O)c2ccccc21
166 | CC(CCC(=O)NCC(=O)O)C1CCC2C3C(O)CC4CC(O)CCC4(C)C3CC(O)C12C (stereo unspecified)
235 to 253 | NC(=O)C1C2C=CC(C2)C1N (stereo unspecified)
149 | O[C@@H](c1ccccc1)[C@@H](O)c1ccccc1
35 to 38 | COC1C(C2COC3(CCCCC3)O2)OC2OC3(CCCCC3)OC21 (stereo unspecified)
190 | N#Cc1c(-c2ccc(Br)cc2)cc2c(C#N)c(=N)n(C(=O)c3ccccc3)n2c1N
117 to 123 | O=S(=O)(CS(=O)(=O)c1ccccc1)c1ccccc1
132 | O=C1c2ccccc2C(=O)N1CCNCCN1C(=O)c2ccccc2C1=O
44.5 | CCCCCCCCCCCC=O
174 | Cc1c(F)c(F)c(C(=O)O)c(F)c1F
-27 | ClC(Cl)(Cl)CC(Cl)(Cl)Cl
228 to 231 | CCOC1OC2C(CO)OC(n3cnc4c(N)ncnc43)C2O1 (stereo unspecified)

melting point [°C] | Structure (SMILES)
157 | O=C(NC1Cc2ccccc21)c1ccccc1 (stereo unspecified)
35.5 | N#CCc1ccc(Cc2ccccc2)cc1
255 to 257 | O=C(O)c1ccc(-c2ccc([N+](=O)[O-])cc2)o1
207 to 209 | O=C(O)c1ccc(O)cc1Cl
62 to 64 | OCc1cc(-c2cccs2)on1
65 to 66 | CCOC(=O)c1sc(Br)nc1C
175 to 177 | Cn1c(S)nnc1-c1ccc(Cl)cc1Cl
130 to 133 | Cn1c(S)nnc1Cc1ccsc1
284 to 285 | Cc1cc(-c2ccccc2)nc2cc3nc(-c4ccccc4)cc(C)c3cc12
251 | N[C@H](Cc1ccc(I)cc1)C(=O)O
233 | FC(F)(F)c1n[nH]c(/N=C/c2ccc(Cl)cc2)n1
255 | CN1CC(=O)NC1=N
140 to 142 | COC(=O)c1cc2c(OC)cccc2[nH]1
213 to 214 | N#CC(=CN)S(=O)(=O)c1ccc(Cl)cc1
183 | Cc1cc(Br)ccc1C(=O)O
215 | CC(=O)C(=NNc1ccccc1)c1cc(C(=NNc2ccccc2)C(C)=O)c([N+](=O)[O-])cc1[N+](=O)[O-]
93 | Cc1cccc(N(C)C(=S)Oc2ccc3c(c2)C2CCC3C2)c1 (stereo unspecified)
389 | Nc1nnc(-c2ccccc2)c(Nc2ccc(I)cc2)n1
32.3 | Cc1cccc(C)c2cc(C(C)C)cc1-2
152 to 157 | Nc1ccc2c(c1)C(=O)c1ccccc1-2
102 | N#C/C(=C\c1ccccc1Cl)c1nc(-c2cccs2)cs1

melting point [°C] | Structure (SMILES)
195 | COC(=O)c1c(C)cc(OC(=O)c2c(C)cc(O)c(C=O)c2O)c(C)c1O
64 to 67 | O=[N+]([O-])c1cc(Br)cnc1Cl
265 | O=C(O)c1cc2cccc([N+](=O)[O-])c2[nH]1
85 | Cc1ccc(CCc2ccc(C)cc2)cc1
205 to 208 | O=C(NC(=S)c1ccc[nH]1)Nc1ccccc1
157 to 158 | O=C(CBr)c1cc(-c2ccc(Cl)cc2)no1
41 to 42 | Cn1nc(CCl)cc1-c1cccs1
94 | CC(=O)C(C#N)(CC(=O)c1ccccc1)c1ccccc1 (stereo unspecified)
193 | Nc1ncc(Cl)cc1[N+](=O)[O-]
91 | C[Si](N[Si](C)(c1ccccc1)c1ccccc1)(c1ccccc1)c1ccccc1
106 to 108 | CC(=O)Nc1ccc2c(c1)CCC2
66 to 68 | O=S(=O)(Cl)c1ccc2c(c1)OCCO2
58 | CCCCCS(=O)CCCCC
192 to 194 | Cc1nn2c(-c3ccccc3)nnc2s1
198 to 200 | NC(=S)c1ccc(-c2ccccn2)s1
173 | c1ccc(C2Nc3ccccc3C2c2ccccc2)cc1 (stereo unspecified)
28 | CC1(C)CCCC(C)(C)N1
51 to 55 | CC(C)(C)OC(=O)NCc1cccc(CO)c1
209 to 213 | O=C(O)c1c(F)c(F)c(F)c(C(=O)O)c1F
39 to 44 | C(=Cc1ccccc1)CN1CCNCC1
65 | CC(=O)c1c(O)ccc2ccccc12

melting point [°C] | Structure (SMILES)
81 to 83 | CC(C)(C)OC(=O)c1cccc(N)c1
14.2 | Cc1cc(F)ccc1N
37.1 | CCCC(=NOCC)C1=C(O)CC(C2CCCSC2)CC1=O (stereo unspecified)
218 to 220 | FC(F)(F)c1cc(Br)c2nc[nH]c2c1
235 to 240 | O=C(O)c1cc(O)cc(O)c1
92 to 93.5 | CCOC(=O)c1cnc2c(c(C)nn2C)c1Oc1ccc(OC)cc1
177 | c1cnc2ccc3ncccc3c2c1
47 | CCOC(=O)c1sc(C2CCN(C(=O)OC(C)(C)C)CC2)nc1C
54 | O=S(=O)(Cl)c1ccc(Cl)cc1Cl
39 to 40 | COC(=O)c1sccc1Cl
149 to 151 | O=C(Nc1ccccc1)Nc1nnc(C(F)(F)F)s1
147 | CCOC(=O)C1=C(C)N(C)C(=S)NC1c1ccccc1 (stereo unspecified)
65 | CC1CCC(C(C)C)C(OC(=O)C(=Cc2ccccc2)C(=O)c2ccccc2)C1 (stereo unspecified)
86 | O=Cc1cc(Cl)cc(Br)c1O
88 | Cc1ccc(C(C)CC(=O)C=Cc2ccccc2)cc1 (stereo unspecified)
133 | CCOc1cccc(/C=C/C(=O)O)c1
120 | O=C(CC(=O)c1ccccc1O)c1ccccc1
59 | O=Cc1ccccc1Cn1cncn1
107 to 109 | Nc1ccc(Oc2ccc(Br)cc2)nc1
35 | Cc1nc(-c2ccccc2)no1

Structure (SMILES) | melting point [°C]
CNC(c1cccc(C(F)(F)F)c1)C(NC)c1cccc(C(F)(F)F)c1 (stereo unspecified) | 113 to 115
Cc1cc([N+](=O)[O-])c(N)c([N+](=O)[O-])c1 | 172
CC(Cl)CCl (stereo unspecified) | -100
O=C(Cl)OCC1c2ccccc2-c2ccccc21 | 63
O=C1NC(=O)C(=Cc2ccc(-c3cccc([N+](=O)[O-])c3)o2)C(=O)N1 | 280
Clc1cc2c(cc1Cl)Oc1c(Cl)c(Cl)cc(Cl)c1O2 | 206
Cc1ccc(O[Si]23OCCN(CCO2)CCO3)cc1 | 188
c1ccc(-c2c[nH]cn2)cc1 | 144
